Experimental data published in patent US8445512B2, “Substituted quinoline-3-carboxamides as KCNQ2/3 modulators” (Gruenenthal GmbH, priority 2010, dated 2013).

Molecular target: T1, KCNQ2/3 channels (Homo sapiens, UniProt O43525+O43526)
T1 construct: expressed in transfected cells
Assay: Fluorescence assay using a voltage sensitive dye (fluorimetry)
Format: cell-based
Conditions: CHO-K1 cells expressing KCNQ2/3 channels; for Emax: relative to retigabine = 100%, read-out: Fluorimetry % efficacy (retigabine = 100%)
Experimental: Method I. Fluorescence Assay Using a Voltage Sensitive Dye (Fluorimetry)
[…] CHO-K1 cells expressing KCNQ2/3 channels are cultivated adherently at 37° C., 5% CO2 and 95% humidity in cell culture bottles (e.g. 80 cm^2 TC flasks, Nunc) with DMEM-high glucose (Sigma Aldrich, D7777) including 10% FCS (PAN Biotech, e.g. 3302-P270521) or alternatively MEM Alpha Medium (1×, liquid, Invitrogen, #22571), 10% fetal calf serum (FCS) (Invitrogen, #10270-106, heat-inactivated) and the necessary selection antibiotics.
Before being sown out for the measurements, the cells are washed with 1×DPBS buffer Ca^2+/Mg^2+-free (e.g. Invitrogen, #14190-094) and detached from the bottom of the culture vessel by using Accutase (PAA Laboratories, #L11-007) (incubation with Accutase for 15 min at 37° C.). The cell number is determined using a CASY™ cell counter (TCC, Schärfe System). Depending on the optimal density for each individual cell line, 20,000-30,000 cells/well/100 μl are seeded onto 96-well Corning™ CellBIND™ assay plates (Flat Clear Bottom Black Polystyrene Microplates, #3340). Freshly seeded cells are then left to settle for one hour at room temperature, followed by incubation for 24 hours at 37° C., 5% CO2 and 95% humidity.
The voltage-sensitive fluorescent dye from the Membrane Potential Assay Kit (Red™ Bulk format part R8123 for FLIPR, MDS Analytical Technologies™) is prepared by dissolving the contents of one vessel Membrane Potential Assay Kit Red Component A in 200 ml of extracellular buffer (ES buffer, 120 mM NaCl, 1 mM KCl, 10 mM HEPES, 2 mM CaCl2, 2 mM MgCl2, 10 mM glucose; pH 7.4). After removal of the nutrient medium, the cells are washed once with 200 μl of ES buffer, then loaded for 45 min at room temperature in 100 μl of dye solution in the dark.
Fluorescence measurements are carried out in a BMG Labtech FLUOstar™, BMG Labtech NOVOstar™ or BMG Labtech POLARstar™ instrument (525 nm excitation, 560 nm emission, Bottom Read mode). After incubation with the dye, 50 μl of the test substances in the desired concentrations, or 50 μl of ES buffer for control purposes, are applied to the wells of the assay plate and incubated for 30 min at room temperature while being shielded from light. The fluorescence intensity of the dye is then measured for 5 min and the fluorescence value F1 of each well is thus determined at a given, constant time. 15 μl of a KCl solution are then added to each well (final concentration of potassium ions 92 mM). The change in fluorescence intensity is subsequently monitored until all the relevant values have been obtained (mainly 5-30 min). At a given time post KCl application, a fluorescence value F2 is determined, in this case at the time of the fluorescence peak.
For calculation, the fluorescence intensity F2 is corrected for the fluorescence intensity F1, and the activity (ΔF/F) of the target compound on the potassium channel is determined as follows:
In order to determine whether a substance has agonistic activity,
[formula] can be related to
[formula] of control wells.
[formula] is determined by adding to the well only the buffer solution instead of the test substance, determining the value F1K of the fluorescence intensity, adding the potassium ions as described above, and measuring a value F2K of the fluorescence intensity. F2K and F1K are then calculated as follows: […]
A substance has an agonistic activity on the potassium channel if
[formula] is greater than
Independently of the comparison of
[formula] it is possible to conclude that a target compound has agonistic activity if
[formula] increases dose dependently. Calculations of EC50 and IC50 values are carried out with the aid of ‘Prism v4.0’ software (GraphPad Software™) Method II. Low-Intensity Tail Flick Test (Rat)

SMILES	EC50 [nM]	Emax [%]
CCCc1nc2cc(C(F)(F)F)ccc2c(C)c1C(=O)NCc1cccs1 [Example 1, 4-Methyl-2-propyl-N-(thiophen-2-yl-methyl)-7-(trifluoromethyl)-quinoline-3-carboxylic acid amide]	160	140
CCCc1nc2cc(C(F)(F)F)ccc2c(C)c1C(=O)NCC1CCCCCC1 [Example 2, N-(Cycloheptyl-methyl)-4-methyl-2-propyl-7-(trifluoromethyl)-quinoline-3-carboxylic acid amide]	327	104
CCCc1nc2cc(C(F)(F)F)ccc2c(C)c1C(=O)NCc1cccc(F)c1 [Example 4, N-[(3-Fluorophenyl)-methyl]-4-methyl-2-propyl-7-(trifluoromethyl)-quinoline-3-carboxylic acid amide]	93	138
CCc1nc2cc(C(F)(F)F)ccc2c(C)c1C(=O)NCc1ccc(F)cc1 [Example 5, 2-Ethyl-N-[(4-fluorophenyl)-methyl]-4-methyl-7-(trifluoromethyl)-quinoline-3-carboxylic acid amide]	266	157
CC(C)c1nc2cc(C(F)(F)F)ccc2cc1C(=O)NCc1cccc(F)c1 [Example 11, N-[(3-Fluorophenyl)-methyl]-2-isopropyl-7-(trifluoromethyl)-quinoline-3-carboxylic acid amide]	246	166
CC(C)c1nc2cc(C(F)(F)F)ccc2cc1C(=O)NCc1ccc(F)cc1 [Example 12, N-[(4-Fluorophenyl)-methyl]-2-isopropyl-7-(trifluoromethyl)-quinoline-3-carboxylic acid amide]	152	137
CC(C)(C)c1nc2cc(C(F)(F)F)ccc2cc1C(=O)NCc1cccc(F)c1 [Example 13, 2-tert-Butyl-N-[(3-fluorophenyl)-methyl]-7-(trifluoromethyl)-quinoline-3-carboxylic acid amide]	829	125
CC(C)(C)c1nc2cc(C(F)(F)F)ccc2cc1C(=O)NCc1ccc(F)cc1 [Example 14, 2-tert-Butyl-N-[(4-fluorophenyl)-methyl]-7-(trifluoromethyl)-quinoline-3-carboxylic acid amide]	738	144
Cc1c(C(=O)NCc2cccc(F)c2)c(CO)nc2cc(C(F)(F)F)ccc12 [Example 17, N-[(3-fluorophenyl)-methyl]-2-(hydroxymethyl)-4-methyl-7-(trifluoromethyl)-quinoline-3-carboxylic acid amide]	2880	102
Cc1c(C(=O)NCc2cccc(F)c2)c(CC(C)(C)C)nc2cc(C(F)(F)F)ccc12 [Example 18, 2-(2,2-dimethyl-propyl)-N-[(3-fluorophenyl)-methyl]-4-methyl-7-(trifluoromethyl)-quinoline-3-carboxylic acid amide]	92	187
Cc1c(C(=O)NCc2ccc(F)cc2)c(CC(C)(C)C)nc2cc(C(F)(F)F)ccc12 [Example 19, 2-(2,2-Dimethyl-propyl)-N-[(4-fluorophenyl)-methyl]-4-methyl-7-(trifluoromethyl)-quinoline-3-carboxylic acid amide]	120	149
Cc1c(C(=O)NCc2cccc(F)c2)c(C2CCCC2)nc2cc(C(F)(F)F)ccc12 [Example 20, 2-Cyclopentyl-N-[(3-fluorophenyl)-methyl]-4-methyl-7-(trifluoromethyl)-quinoline-3-carboxylic acid amide]	49	185
Cc1c(C(=O)NCc2ccc(F)cc2)c(C2CCCC2)nc2cc(C(F)(F)F)ccc12 [Example 21, 2-Cyclopentyl-N-[(4-fluorophenyl)-methyl]-4-methyl-7-(trifluoromethyl)-quinoline-3-carboxylic acid amide]	223	178
CCCc1nc2cc(C(F)(F)F)ccc2c(C)c1C(=O)NCCCC(C)(C)C [Example 22, N-(4,4-Dimethyl-pentyl)-4-methyl-2-propyl-7-(trifluoromethyl)-quinoline-3-carboxylic acid amide]	185	277
C/C=C/c1nc2cc(C(F)(F)F)ccc2c(C)c1C(=O)NCc1cccc(F)c1 [Example 23, N-[(3-fluorophenyl)-methyl]-4-methyl-2-[(E)-prop-1-enyl]-7-(trifluoromethyl)-quinoline-3-carboxylic acid amide]	446	130
CC(C)=Cc1nc2cc(C(F)(F)F)ccc2c(C)c1C(=O)NCc1cccc(F)c1 [Example 24, N-[(3-fluorophenyl)-methyl]-4-methyl-2-(2-methyl-prop-1-enyl)-7-(trifluoromethyl)-quinoline-3-carboxylic acid amide]	162	171
Cc1c(C(=O)NCc2cccc(F)c2)c(CN(C)C)nc2cc(C(F)(F)F)ccc12 [Example 31, 2-(dimethylaminomethyl)-N-[(3-fluorophenyl)-methyl]-4-methyl-7-(trifluoromethyl)-quinoline-3-carboxylic acid amide]	1850	40
CCc1nc2cc(C(F)(F)F)ccc2c(C)c1C(=O)NCc1ccc(F)c(C)c1 [Example 32, 2-Ethyl-N-[(4-fluoro-3-methyl-phenyl)-methyl]-4-methyl-7-(trifluoromethyl)-quinoline-3-carboxylic acid amide]	317	133
CCc1nc2cc(C#N)ccc2c(C)c1C(=O)NCc1cccc(F)c1 [Example 33, 7-Cyano-2-ethyl-N-[(3-fluorophenyl)-methyl]-4-methyl-quinoline-3-carboxylic acid amide]	1020	121
CCc1nc2cc(C(F)(F)F)ccc2c(C)c1C(=O)NCc1ccc(C)c(F)c1 [Example 34, 2-Ethyl-N-[(3-fluoro-4-methyl-phenyl)-methyl]-4-methyl-7-(trifluoromethyl)-quinoline-3-carboxylic acid amide]	312	139
CCc1nc2cc(C#N)ccc2c(C)c1C(=O)NCc1ccc(F)cc1 [Example 35, 7-Cyano-2-ethyl-N-[(4-fluorophenyl)-methyl]-4-methyl-quinoline-3-carboxylic acid amide]	578	97
Cc1c(C(=O)NCc2cccc(F)c2)c(CC(C)C)nc2cc(C(F)(F)F)ccc12 [Example 36, N-[(3-Fluorophenyl)-methyl]-4-methyl-2-(2-methyl-propyl)-7-(trifluoromethyl)-quinoline-3-carboxylic acid amide]	82	154
Cc1c(C(=O)NCc2cccc(F)c2)c(C2CC2)nc2cc(C#N)ccc12 [Example 37, 7-Cyano-2-cyclopropyl-N-[(3-fluorophenyl)-methyl]-4-methyl-quinoline-3-carboxylic acid amide]	108	128
Cc1c(C(=O)NCc2ccc(F)cc2)c(C2CC2)nc2cc(C#N)ccc12 [Example 38, 7-cyano-2-cyclopropyl-N-[(4-fluorophenyl)-methyl]-4-methyl-quinoline-3-carboxylic acid amide]	118	122
Cc1c(C(=O)NCc2cccc(F)c2)c(C(C)C)nc2cc(C#N)ccc12 [Example 39, 7-Cyano-N-[(3-fluorophenyl)-methyl]-2-isopropyl-4-methyl-quinoline-3-carboxylic acid amide]	215	174
